Experimental data reported in patent US8431563B2 (priority 2010, dated 2013).
Like-named read-outs stand apart in the source and are kept apart here.

Assays:
[1] = target: T1, interaction between glucokinase (GK) and glucokinase regulatory protein (GKRP) (Homo sapiens, UniProt Q14397); assay: biochemical; type: binding
T1 sequence (Q14397 1-625): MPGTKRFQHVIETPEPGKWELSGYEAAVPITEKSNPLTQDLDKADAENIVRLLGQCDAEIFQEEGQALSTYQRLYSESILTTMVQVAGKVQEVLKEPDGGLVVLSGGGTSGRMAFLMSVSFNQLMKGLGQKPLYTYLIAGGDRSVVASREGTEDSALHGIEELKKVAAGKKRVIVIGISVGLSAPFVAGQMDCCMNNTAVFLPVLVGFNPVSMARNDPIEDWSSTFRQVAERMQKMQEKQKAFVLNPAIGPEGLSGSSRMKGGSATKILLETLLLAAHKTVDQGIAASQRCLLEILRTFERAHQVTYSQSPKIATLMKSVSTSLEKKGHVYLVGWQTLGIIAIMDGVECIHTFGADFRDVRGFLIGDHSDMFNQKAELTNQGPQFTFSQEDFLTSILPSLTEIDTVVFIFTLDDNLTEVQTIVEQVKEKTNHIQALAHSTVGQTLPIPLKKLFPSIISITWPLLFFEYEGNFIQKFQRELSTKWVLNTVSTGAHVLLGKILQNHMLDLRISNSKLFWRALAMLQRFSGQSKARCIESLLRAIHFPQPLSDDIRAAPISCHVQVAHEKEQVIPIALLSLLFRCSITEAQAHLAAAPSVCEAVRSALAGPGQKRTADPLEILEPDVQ
Summary of the method: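 Measures direct GK–GKRP binding in 20 mM Tris pH 7.5 containing 1 μM sorbitol-6-phosphate, 0.05% BSA and 1 mM DTT. Compound and avi-tagged GKRP sit 20 min at room temperature before GK-fluorescein addition (6 nM in the added buffer); read after 2 h dark incubation at room temperature.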

[2] = target: T2, GKRP (Glucokinase Regulatory Protein) with human His-hepatic GK (Homo sapiens, UniProt Q14397); assay: biochemical
T2 sequence (Q14397 1-625): T1 sequence (Q14397 1-625)
Summary of the method: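 Product formation, 13C-glucose-6-phosphate from 13C-glucose, was measured directly by LC MS/MS after acetonitrile quench. The GK reaction ran 30 min at room temperature in Tris pH 7.5 buffer with 4 mM MgCl2 and 6% DMSO. The 5× enzyme stock was 30 nM His-tagged human hepatic glucokinase.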

[3] = avi-tagged GKRP, GK-fluorescein, AlphaScreen beads, read-out: GK-GKRP IC50 (Binding)
[4] = 13C-glucose-6-phosphate formation, 280 nM GKRP (10×), 30 nM GK (5×), read-out: GK-GKRP EC50 (LC MS/MS-2)

Structure (SMILES)	IC50 [1, 3]	EC50 [2, 4]	IC50 ([1]; GK-GKRP IC50 (Binding))	EC50 ([2]; GK-GKRP EC50 (LC MS/MS-2))
C[C@H]1COCCN1C[C@H]1CN(S(=O)(=O)c2ccc(N)nc2)CCN1c1ncc(C(C)(O)C(F)(F)F)cn1 (mixture of isomers) [Example 129, 2-(2-((2S)-4-((6-amino-3-pyridinyl)sulfonyl)-2-(((3S)-3-methyl-4-morpholinyl)methyl)-1-piperazinyl)-5-pyrimidinyl)-1,1,1-trifluoro-2-propanol]	36 nM	99 nM	–	–
C[C@H]1CN(S(=O)(=O)c2ccc(N)s2)CCN1c1ccc(C(C)(O)C(F)(F)F)cc1 (mixture of isomers) [Example 139, 2-(4-((2S)-4-((5-amino-2-thiophenyl)sulfonyl)-2-methyl-1-piperazinyl)phenyl)-1,1,1-trifluoro-2-propanol]	630 nM	370 nM	–	–
C[C@@H](C[C@H]1CN(S(=O)(=O)c2cccs2)CCN1c1ccc([C@](C)(O)C(F)(F)F)cc1)NC1COC1 (racemic) [Example 148, 1,1,1-trifluoro-2-(4-((2S)-2-(2-(3-oxetanylamino)propyl)-4-(2-thiophenylsulfonyl)-1-piperazinyl)phenyl)-2-propanol]	–	–	1120 nM	529 nM
CC(O)C#Cc1cc(C(O)(C(F)(F)F)C(F)(F)F)ccc1N1CCN(S(=O)(=O)c2cccs2)CC1 (racemic) [Example 151, 4-(2-(4-(2-thiophenylsulfonyl)-1-piperazinyl)-5-(2,2,2-trifluoro-1-hydroxy-1-(trifluoromethyl)ethyl)phenyl)-3-butyn-2-ol]	396 nM	994 nM	–	–
CCC(C#Cc1cc(C(O)(C(F)(F)F)C(F)(F)F)ccc1N1CCN(S(=O)(=O)c2cccs2)CC1)OC (racemic) [Example 155, 1,1,1,3,3,3-hexafluoro-2-(3-(3-methoxy-1-pentyn-1-yl)-4-(4-(2-thiophenylsulfonyl)-1-piperazinyl)phenyl)-2-propanol]	145 nM	112 nM	–	–
CCC(C#Cc1cc(C(O)(C(F)(F)F)C(F)(F)F)ccc1N1CCC(S(=O)(=O)c2ccccc2)CC1)OC (racemic) [Example 163, 1,1,1,3,3,3-hexafluoro-2-(3-(3-methoxypent-1-ynyl)-4-(4-(phenylsulfonyl)piperidin-1-yl)phenyl)-2-propanol]	602 nM	807 nM	–	–
COc1ccccc1CC1CN(S(=O)(=O)c2cccs2)CCN1c1ccc(C(O)(C(F)(F)F)C(F)(F)F)cc1 (racemic) [Example 174, 1,1,1,3,3,3-hexafluoro-2-(4-(2-(2-methoxybenzyl)-4-(thiophen-2-ylsulfonyl)piperazin-1-yl)phenyl)-2-propanol]	167 nM	114 nM	–	–
O=S(=O)(c1cccs1)N1CCN(c2ccc(C(O)(C(F)(F)F)C(F)(F)F)cc2)C(Cc2ccccc2O)C1 (racemic) [Example 178, 2-((1-(4-(1,1,1,3,3,3-hexafluoro-2-hydroxypropan-2-yl)phenyl)-4-(thiophen-2-ylsulfonyl)piperazin-2-yl)methyl)phenol]	170 nM	84 nM	–	–
CC(C)C1C(=O)NCCN1C[C@H]1CN(S(=O)(=O)c2cccs2)CCN1c1ncc(C(O)(C(F)(F)F)C(F)(F)F)cn1 (mixture of isomers) [Example 185, 3-(1-methylethyl)-4-(((2S)-4-(2-thiophenylsulfonyl)-1-(5-(2,2,2-trifluoro-1-hydroxy-1-(trifluoromethyl)ethyl)-2-pyrimidinyl)-2-piperazinyl)methyl)-2-piperazinone]	1 nM	16 nM	–	–
CC(O)(c1ccc(N2CCN(S(=O)(=O)c3cccs3)C[C@@H]2CS(=O)(=O)c2cccc(F)c2)cc1)C(F)(F)F (mixture of isomers) [Example 189 Peak#1, 1,1,1-trifluoro-2-(4-((2R)-2-(((3-fluorophenyl)sulfonyl)methyl)-4-(2-thiophenylsulfonyl)-1-piperazinyl)phenyl)-2-propanol]	374 nM	235 nM	–	–
CC(O)(c1ccc(N2CCN(S(=O)(=O)c3cccs3)C[C@@H]2CS(=O)(=O)c2ccc(F)cc2)cc1)C(F)(F)F (mixture of isomers) [Example 191 Peak#1, 1,1,1-trifluoro-2-(4-((2R)-2-(((4-fluorophenyl)sulfonyl)methyl)-4-(2-thiophenylsulfonyl)-1-piperazinyl)phenyl)-2-propanol]	177 nM	166 nM	–	–
CC(O)(c1ccc(N2CCN(S(=O)(=O)c3cccs3)C[C@@H]2CNS(=O)(=O)c2cccnc2)cc1)C(F)(F)F (mixture of isomers) [Example 192, N-(((2S)-4-(2-thiophenylsulfonyl)-1-(4-(2,2,2-trifluoro-1-hydroxy-1-methylethyl)phenyl)-2-piperazinyl)methyl)-3-pyridinesulfonamide]	103 nM	126 nM	–	–
CC(C)N(C[C@H]1CN(S(=O)(=O)c2cccs2)CCN1c1ccc(C(C)(O)C(F)(F)F)cc1)S(C)(=O)=O (mixture of isomers) [Example 195, N-(1-methylethyl)-N-(((2R)-4-(2-thiophenylsulfonyl)-1-(4-(2,2,2-trifluoro-1-hydroxy-1-methylethyl)phenyl)-2-piperazinyl)methyl)methanesulfonamide]	28 nM	57 nM	–	–
CC(C)CN(C[C@H]1CN(S(=O)(=O)c2cccs2)CCN1c1ccc(C(C)(O)C(F)(F)F)cc1)S(C)(=O)=O (mixture of isomers) [Example 201, N-(2-methylpropyl)-N-(((2S)-4-(2-thiophenylsulfonyl)-1-(4-(2,2,2-trifluoro-1-hydroxy-1-methylethyl)phenyl)-2-piperazinyl)methyl)methanesulfonamide]	4 nM	14 nM	–	–
CC(O)(c1ccc(N2CCN(S(=O)(=O)c3cccs3)C[C@@H]2CN(CC2CC2)S(C)(=O)=O)cc1)C(F)(F)F (mixture of isomers) [Example 202, N-(cyclopropylmethyl)-N-(((2S)-4-(2-thiophenylsulfonyl)-1-(4-(2,2,2-trifluoro-1-hydroxy-1-methylethyl)phenyl)-2-piperazinyl)methyl)methanesulfonamide]	26 nM	39 nM	–	–
CC(O)(c1ccc(N2CCN(S(=O)(=O)c3cccs3)CC2CN2C3COCC2C(O)C3)cc1)C(F)(F)F (single isomer, unassigned) [Example 77 Peak #2]	11 nM	19 nM	–	–
CC(O)(c1ccc(N2CCN(S(=O)(=O)c3cccs3)CC2CN2C3COCC2C(O)C3)cc1)C(F)(F)F (single isomer, unassigned) [Example 77 Peak #3]	29 nM	58 nM	–	–
CC(O)(c1ccc(N2CCN(S(=O)(=O)c3cccs3)C[C@@H]2CN2C3COCC2C(O)C3)cc1)C(F)(F)F (single isomer, unassigned) [Example 78 Peak #1]	44 nM	146 nM	–	–
CC(O)(c1ccc(N2CCN(S(=O)(=O)c3cccs3)C[C@@H]2CN2C3COCC2C(O)C3)cc1)C(F)(F)F (single isomer, unassigned) [Example 78 Peak #2]	49 nM	60 nM	–	–
CC(O)(c1ccc(N2CCN(S(=O)(=O)c3cccs3)C[C@@H]2CN2C3COCC2C(O)C3)cc1)C(F)(F)F (single isomer, unassigned) [Example 78 Peak #3]	33 nM	36 nM	–	–
CC(O)(c1ccc(N2CCN(S(=O)(=O)c3cccs3)C[C@@H]2CN2C3COCC2C(O)C3)cc1)C(F)(F)F (single isomer, unassigned) [Example 78 Peak #4]	40 nM	46 nM	–	–
O=S(=O)(c1cccs1)N1CCN(c2ncc(C(O)(C(F)(F)F)C(F)(F)F)cn2)[C@@H](CN2C3COCC2C(O)C3)C1 (single isomer, unassigned) [Example 79 Peak #1]	49 nM	50 nM	–	–
O=S(=O)(c1cccs1)N1CCN(c2ncc(C(O)(C(F)(F)F)C(F)(F)F)cn2)[C@@H](CN2C3COCC2C(O)C3)C1 (single isomer, unassigned) [Example 79 Peak #2]	32 nM	73 nM	–	–
C[C@H]1COCCN1C[C@H]1CN(S(=O)(=O)c2cccs2)CCN1c1ccc(C(O)(CO)C(F)(F)F)cc1 (single isomer, unassigned) [Example 83 Peak #1]	32 nM	68 nM	–	–
C[C@H]1COCCN1C[C@H]1CN(S(=O)(=O)c2cccs2)CCN1c1ccc(C(O)(CO)C(F)(F)F)cc1 (single isomer, unassigned) [Example 83 Peak #2]	22 nM	16 nM	–	–
CC(O)(c1ccc(N2CCN(S(=O)(=O)c3cccs3)C[C@@H]2CN2[C@@H]3COC[C@H]2CC(=O)C3)cc1)C(F)(F)F (single isomer, unassigned) [Example 106 Peak#1]	52 nM	88 nM	–	–
